Values of other authors in patent US20130251663A1, “Tissue Preservation Fluid” (GREENBLENDZ, INC., priority 2012, published 2013).

Test system: eyes nose and throat
Conditions: airborne exposure

C=O [formaldehyde]
Airborne concentration immediately dangerous to life and health: 100 ppm
Airborne concentration that can cause irritation of the eyes nose and throat: above 0.1 ppm
